Assay results from patent publication US9758529B2, “Fused dihydro-4H-pyrazolo[5,1-C][1,4]oxazinyl compounds and analogs for treating CNS disorders” (Sunovion Pharmaceuticals Inc., priority 2015, dated 2017).

System: mice
Test: Neuropharmacological Assay (SmartCube)
Assay type: in vivo
Conditions: i.p. 15 min before behavioral test; 3 doses, most efficacious dose(s) presented

CN(CC1OCCCn2nc3ccccc3c21)C1CCC1.Cl (stereo not drawn) [Compound 55, N-((4,5-dihydro-1H,3H-[1,4]oxazepino[4,3-b]indazol-1-yl)methyl)-N-methylcyclobutanaminium chloride]
++ (5%≦ ++ <25%): AX: anxiolytic (probability of class match)
+ (LOQ≦ + <5%): AD: ADHD (probability of class match) | AG: analgesic (probability of class match) | CE: cognitive enhancer (probability of class match) | DP: anti-depressant (probability of class match) | HA: hallucinogen (probability of class match) | MS: mood stabilizer (probability of class match) | PS: anti-psychotic (probability of class match) | SD: sedative hypnotic (probability of class match) | XG: anxiogenic (probability of class match)
+++ (25%≦ +++ <50%): UN: uncharacterized CNS activity (probability of class match)

Cl.NCC1OCCCn2nc3ccccc3c21 (stereo not drawn) [Compound 56, (4,5-dihydro-1H,3H-[1,4]oxazepino[4,3-b]indazol-1-yl)methanaminium chloride]
+ (LOQ≦ + <5%): AD: ADHD (probability of class match) | AG: analgesic (probability of class match) | AX: anxiolytic (probability of class match) | CE: cognitive enhancer (probability of class match) | DP: anti-depressant (probability of class match) | HA: hallucinogen (probability of class match) | MS: mood stabilizer (probability of class match) | PS: anti-psychotic (probability of class match) | SD: sedative hypnotic (probability of class match) | UN: uncharacterized CNS activity (probability of class match) | XG: anxiogenic (probability of class match)

CCNCC1OCCCn2nc3ccccc3c21.Cl (stereo not drawn) [Compound 57, N-((4,5-dihydro-1H,3H-[1,4]oxazepino[4,3-b]indazol-1-yl)methyl)ethanaminium chloride]
+ (LOQ≦ + <5%): AD: ADHD (probability of class match) | AG: analgesic (probability of class match) | AX: anxiolytic (probability of class match) | CE: cognitive enhancer (probability of class match) | DP: anti-depressant (probability of class match) | HA: hallucinogen (probability of class match) | MS: mood stabilizer (probability of class match) | PS: anti-psychotic (probability of class match) | SD: sedative hypnotic (probability of class match) | UN: uncharacterized CNS activity (probability of class match) | XG: anxiogenic (probability of class match)

CNCC1OCCn2nc3ccsc3c21.Cl (stereo not drawn) [Compound 58, 1-(6,7-dihydro-9H-thieno[3′,2′:3,4]pyrazolo[5,1-c][1,4]oxazin-9-yl)-N-methylmethanaminium chloride]
+ (LOQ≦ + <5%): AG: analgesic (probability of class match) | CE: cognitive enhancer (probability of class match) | MS: mood stabilizer (probability of class match) | PS: anti-psychotic (probability of class match) | UN: uncharacterized CNS activity (probability of class match) | XG: anxiogenic (probability of class match)
++ (5%≦ ++ <25%): AD: ADHD (probability of class match) | AX: anxiolytic (probability of class match) | HA: hallucinogen (probability of class match) | SD: sedative hypnotic (probability of class match)
++++ (50%≦ ++++): DP: anti-depressant (probability of class match)

CN(C)CC1OCCn2nc3ccsc3c21.Cl (stereo not drawn) [Compound 59, 1-(6,7-dihydro-9H-thieno[3′,2′:3,4]pyrazolo[5,1-c][1,4]oxazin-9-yl)-N,N-dimethylmethanaminium chloride]
+ (LOQ≦ + <5%): AD: ADHD (probability of class match) | HA: hallucinogen (probability of class match) | MS: mood stabilizer (probability of class match) | SD: sedative hypnotic (probability of class match) | XG: anxiogenic (probability of class match)
++ (5%≦ ++ <25%): AG: analgesic (probability of class match) | AX: anxiolytic (probability of class match) | CE: cognitive enhancer (probability of class match) | DP: anti-depressant (probability of class match) | PS: anti-psychotic (probability of class match)
+++ (25%≦ +++ <50%): UN: uncharacterized CNS activity (probability of class match)

Cl.NCC1OCCn2nc3ccsc3c21 (stereo not drawn) [Compound 60, (6,7-dihydro-9H-thieno[3′,2′:3,4]pyrazolo[5,1-c][1,4]oxazin-9-yl)methanaminium chloride]
++ (5%≦ ++ <25%): AD: ADHD (probability of class match) | DP: anti-depressant (probability of class match) | SD: sedative hypnotic (probability of class match)
+ (LOQ≦ + <5%): AG: analgesic (probability of class match) | CE: cognitive enhancer (probability of class match) | HA: hallucinogen (probability of class match) | MS: mood stabilizer (probability of class match) | PS: anti-psychotic (probability of class match) | UN: uncharacterized CNS activity (probability of class match) | XG: anxiogenic (probability of class match)
+++ (25%≦ +++ <50%): AX: anxiolytic (probability of class match)

CNCC1OCCn2nc3cnccc3c21.Cl.Cl (stereo not drawn) [Compound 61, 1-((methylammonio)methyl)-3,4-dihydro-1H-pyrido[3′,4′:3,4]pyrazolo[5,1-c][1,4]oxazin-8-ium chloride]
+ (LOQ≦ + <5%): AG: analgesic (probability of class match) | AX: anxiolytic (probability of class match) | CE: cognitive enhancer (probability of class match) | MS: mood stabilizer (probability of class match) | PS: anti-psychotic (probability of class match) | SD: sedative hypnotic (probability of class match) | XG: anxiogenic (probability of class match)
++++ (50%≦ ++++): DP: anti-depressant (probability of class match)
++ (5%≦ ++ <25%): AD: ADHD (probability of class match) | HA: hallucinogen (probability of class match) | UN: uncharacterized CNS activity (probability of class match)

CN(C)CC1OCCn2nc3cnccc3c21.Cl.Cl (stereo not drawn) [Compound 62, 1-((dimethylammonio)methyl)-3,4-dihydro-1H-pyrido[3′,4′:3,4]pyrazolo[5,1-c][1,4]oxazin-8-ium chloride]
++ (5%≦ ++ <25%): AX: anxiolytic (probability of class match)
+ (LOQ≦ + <5%): AD: ADHD (probability of class match) | AG: analgesic (probability of class match) | CE: cognitive enhancer (probability of class match) | DP: anti-depressant (probability of class match) | HA: hallucinogen (probability of class match) | MS: mood stabilizer (probability of class match) | PS: anti-psychotic (probability of class match) | SD: sedative hypnotic (probability of class match) | UN: uncharacterized CNS activity (probability of class match) | XG: anxiogenic (probability of class match)

c1ccc2c3n(nc2c1)CCOC3CN1CC1 (stereo not drawn) [Compound 63, 1-(aziridin-1-ylmethyl)-3,4-dihydro-1H-[1,4]oxazino[4,3-b]indazole]
++ (5%≦ ++ <25%): DP: anti-depressant (probability of class match) | SD: sedative hypnotic (probability of class match)
+ (LOQ≦ + <5%): AD: ADHD (probability of class match) | AX: anxiolytic (probability of class match) | CE: cognitive enhancer (probability of class match) | HA: hallucinogen (probability of class match) | MS: mood stabilizer (probability of class match) | PS: anti-psychotic (probability of class match) | UN: uncharacterized CNS activity (probability of class match) | XG: anxiogenic (probability of class match)
+++ (25%≦ +++ <50%): AG: analgesic (probability of class match)

c1ccc2c3n(nc2c1)CCOC3[C@@H]1CCN1 (stereo partly drawn) [Compound 64, (2S)-2-(3,4-dihydro-1H-[1,4]oxazino[4,3-b]indazol-1-yl)azetidin-1-ium chloride]
++ (5%≦ ++ <25%): AG: analgesic (probability of class match) | AX: anxiolytic (probability of class match) | DP: anti-depressant (probability of class match)
++++ (50%≦ ++++): AD: ADHD (probability of class match)
+ (LOQ≦ + <5%): CE: cognitive enhancer (probability of class match) | HA: hallucinogen (probability of class match) | MS: mood stabilizer (probability of class match) | PS: anti-psychotic (probability of class match) | SD: sedative hypnotic (probability of class match) | XG: anxiogenic (probability of class match)
+++ (25%≦ +++ <50%): UN: uncharacterized CNS activity (probability of class match)

CN1CC[C@H]1C1OCCn2nc3ccccc3c21 (stereo partly drawn) [Compound 65, ((2S)-2-(3,4-dihydro-1H-[1,4]oxazino[4,3-b]indazol-1-yl)-1-methylazetidin-1-ium chloride]
++ (5%≦ ++ <25%): AX: anxiolytic (probability of class match) | CE: cognitive enhancer (probability of class match) | DP: anti-depressant (probability of class match) | SD: sedative hypnotic (probability of class match) | XG: anxiogenic (probability of class match)
+++ (25%≦ +++ <50%): AG: analgesic (probability of class match)
+ (LOQ≦ + <5%): AD: ADHD (probability of class match) | HA: hallucinogen (probability of class match) | MS: mood stabilizer (probability of class match) | PS: anti-psychotic (probability of class match) | UN: uncharacterized CNS activity (probability of class match)

c1ccc2c3n(nc2c1)CCOC3C1CNC1 (stereo not drawn) [Compound 66, 3-(3,4-dihydro-1H-[1,4]oxazino[4,3-b]indazol-1-yl)azetidin-1-ium chloride]
+ (LOQ≦ + <5%): AD: ADHD (probability of class match) | CE: cognitive enhancer (probability of class match) | HA: hallucinogen (probability of class match) | MS: mood stabilizer (probability of class match) | PS: anti-psychotic (probability of class match) | SD: sedative hypnotic (probability of class match) | UN: uncharacterized CNS activity (probability of class match) | XG: anxiogenic (probability of class match)
++ (5%≦ ++ <25%): AG: analgesic (probability of class match) | AX: anxiolytic (probability of class match) | DP: anti-depressant (probability of class match)
